This is an account of results in US20240294467A1, “USP9X Inhibitors” (ProDeg, LLC, priority 2021, published 2024).

Experiment [1] relates to 66 cancer cell lines. Briefly: ONCOLINES Profiler, whole panel. It is filed as cell-based. An excerpt:
The sensitivities of multiple cancer cells can be determined by screening the compounds on a cancer cell line panel, such as an ONCOLINES™ Profiler (Netherlands Translational Research Center) assayed with various tumor cell lines. For more information on ONCOLINES™ methods, see https://www.oncolines.com/oncolines/oncolines-explained-facts/. […] For example, Compound 7A inhibited the proliferation of 57 of the 66 cell lines being tested. […] “A tumor cell line sensitive to the compounds” is referred to that the proliferation of a tumor cell line, when contacted with the compounds, is inhibited by at least 50%, at least 60%, at least 70%, at least 80%, at least 85%, at least 90%, at least 91%, at least 92%, at least 93%, at least 94%, at least 95%, at least 96%, at least 97%, at least 98%, at least 99%, or 100%.
(§1) The compounds were profiled on an ONCOLINES™ Profiler (Netherlands Translational Research Center) assayed with 66 cancer cell lines to determine if they were capable of inhibiting the proliferation of these cancer cells.
(§2) To further evaluate potency of the compounds, they were compared with the USP9X inhibitor WP 1130 by screening both the compounds and WP1130 on a 66-cancer cell line panel ONCOLINES™ Profiler.

In experiment [2] the test system is Mcl-1. Briefly: Capture ELISA of Mcl-1 and ubiquitylated Mcl-1 in MIA-PaCa-2 cells. It is filed as cell-based, human. The conditions noted are these: 24 hours. The procedure:
MIA-PaCa-2 cells were treated with Compound 7A at 25 μM, 12.5 μM, 6.25 μM, and 3.125 μM, respectively, for 24 hours. Capture ELISA of Mcl-1 was performed using a dilution series of MIA-PaCa-2 cell lysates equalized for total protein in a 96-well plate coated with sheep anti-human Mcl-1 (R&D Systems, #AF8281). Detection of Mcl-1 was performed using biotinylated sheep anti-human Mcl-1 followed by streptavidin-horseradish peroxidase and TMB development. For detection of ubiquitylated Mcl-1 the same capture conditions were used but employing a biotinylated mouse anti-human ubiquitin antibody (R&D Systems, #MAB701), again detecting with streptavidin-horseradish peroxidase and TMB development. Lysate samples were run in triplicate and percentages were calculated based on the signal generated from cell lysates with no compound added (vehicle control samples). […] With 12.5 μM Compound 7A, Mcl-1 declined by about 25.0% whereas ubiquitylated Mcl-1 increased by about 14.0%.
Background: In an ELISA, binding on a coated surface is turned into a signal by an enzyme label.

In experiment [3] the test system is BT-20. Briefly: ONCOLINES Profiler proliferation. It is filed as cell-based.
Source text: as §1, §2

The subject of experiment [4] is H82. Briefly: ONCOLINES Profiler proliferation. It is filed as cell-based.
Source text: as §1, §2

The test system of experiment [5] is CCRF-CEM. Description: ONCOLINES Profiler proliferation. It is filed as cell-based. The conditions noted are these: for IC50: acute lymphoblastic leukemia.
Source text: as §1, §2

The subject of experiment [6] is RPMI-7951. Description: ONCOLINES Profiler proliferation. It is filed as cell-based.
Source text: as §1, §2

Experiment [7] concerns DU 145. Briefly: ONCOLINES Profiler proliferation. It is filed as cell-based.
Source text: as §1, §2

In experiment [8] the test system is Hs 57BT. Description: ONCOLINES Profiler proliferation. It is filed as cell-based. The following applies: for IC50: Hs 57BT (Hs578T), breast carcinoma.
Source text: as §1, §2

Experiment [9] relates to OVCAR-3. Briefly: ONCOLINES Profiler proliferation. It is filed as cell-based. The conditions noted are these: Homo sapiens; OVCAR-3, ovary adenocarcinoma.
Source text: as §1

Experiment [10] deals with A-204. Briefly: ONCOLINES Profiler proliferation. It is filed as cell-based. The following applies: Homo sapiens, A204; A-204, rhabdomyosarcoma.
Source text: as §1

Experiment [11] deals with A375. Description: ONCOLINES Profiler proliferation. It is filed as cell-based. The conditions noted are these: Homo sapiens, A-375; A375, malignant melanoma.
Source text: as §1

Experiment [12] concerns K-562. Briefly: ONCOLINES Profiler proliferation. The following applies: Homo sapiens, K562; K-562, CML. It is filed as cell-based.
Source text: as §1

Experiment [13] relates to Jurkat E6.1. Briefly: ONCOLINES Profiler proliferation. It is filed as cell-based. The following applies: Homo sapiens; Jurkat E6.1, T cell leukemia.
Source text: as §1

Experiment [14] concerns SUP-T1. Briefly: ONCOLINES Profiler proliferation. It is filed as cell-based. The following applies: Homo sapiens; SUP-T1, T-cell lymphoblastic lymphoma.
Source text: as §1

In experiment [15] the test system is Daoy. Description: ONCOLINES Profiler proliferation. It is filed as cell-based. The conditions noted are these: Homo sapiens, medulloblastoma.
Source text: as §1

Experiment [16] relates to SR. Briefly: ONCOLINES Profiler proliferation. It is filed as cell-based. The following applies: Homo sapiens, large cell immunoblastic lymphoma.
Source text: as §1

Experiment [17] concerns AN3 CA. Description: ONCOLINES Profiler proliferation. It is filed as cell-based. The following applies: Homo sapiens, endometrium adenocarcinoma.
Source text: as §1

In experiment [18] the test system is MDA-MB-231 cells. Briefly: WST-1 cell viability assay. It is filed as cell-based. The conditions noted are these: co-treatment of 10 μM Compound 5A. The protocol:
Compound Compound 9A was tested for the ability to inhibit the proliferation of Mia-Paca-2 pancreatic cancer cells. Mia-Paca-2 and MDA-MB-231 cells were seeded into the wells of a 96 well tissue culture plate in complete medium (10% fetal calf serum) and incubated overnight at 37° C./5% CO2). The medium was exchanged for fresh medium containing varying concentrations of Compound 9A and the plate was incubated for 72 hours at 37° C./5% CO2. The viability of cells at the end of this incubation was assessed with the WST-1 reagent. To 10 ml of warm (37° C.) complete medium, 1 ml WST-1 reagent was added. The medium from the wells of the plate with the Mia-Paca-2 cells was removed and replaced with 100 μL of the WST-1 reagent in complete medium. The plate was incubated at 37 37° C./5% CO2. At timed intervals the absorbance at 450 nm was determined for each well in a UVNis plate reader. For each well the slope of the plot of the absorbance 450 nm vs time was determined. The readings were normalized to that of the wells for the untreated control and a dose-response curve was plotted. A fit to the data was made from a four parameter, variable slope program (GraphPad Prism) and the IC50 was determined.
The TNBC cell line MDA-MB-231 express high levels of Mcl-1 and USP9X in addition to Bcl-2 and Bcl-xL. MDA-MB-231 cells were treated with ABT737 for 72 hours at varying concentrations and underwent western blot analysis.
(In general: Formazan colour is commonly taken as a measure of viable cells.)

As to `CN1CCOc2ccc(cc2)C(=O)NCc2ccc(F)c(c2)C(=O)N[C@@H](CC(C)(C)C)C(=O)Nc2ccc(cc2)CCN(C)C(=O)CC(C)(C)CC1=O` [Compound 7A], the “cancer cell lines sensitive / proliferation inhibited, of 66” value in experiment [1] (66 cell lines tested) came out at 57. In addition, the result in [1] (in 3 of 66 cell lines, high Bcl-xL) was inactive. Moreover, in experiment [1] (in 12 of 66 cell lines), the “fold more potent than WP 1130” value is given as “about 4 fold”. For the same compound, the Mcl-1 decline entry in [2] (12.5 μM) is recorded as “about 25.0%”; in [2] (25 μM) it was “about 23.0%”. Besides, the “ubiquitylated Mcl-1 increase” value is “about 14.0%” in experiment [2] (12.5 μM) and “about 27.5%” in [2] (25 μM). Moreover, the “IC50 Ratio WP1130/Compound 7A” value in experiment [3] (BT-20) was 3.6; in experiment [4] (H82) it was 6.0; in experiment [5], 17.6; in [6] (RPMI7951) it was 3.5; in experiment [7] (DU145), 4.8; in experiment [8] (Hs578T) it was 4.5. In addition, the IC50 in experiment [3] (BT-20, breast carcinoma) stood at 1400 nM; in experiment [3] (Homo sapiens, BT-20, BT-20, breast carcinoma), 1390 nM; in experiment [4] (Homo sapiens, NCI-H82, H82, small cell lung), 1100 nM; in experiment [5] (Homo sapiens), 247 nM; in experiment [5], 250 nM; in [6] (Homo sapiens, RPMI-7951, RPMI-7951, malignant melanoma) it was 1200 nM. Besides, the IC50 in experiment [6] (RPMI-7951, malignant melanoma) came to 1200 nM; in experiment [7] (DU 145, prostate carcinoma) it was 2000 nM; in experiment [7] (Homo sapiens, DU-145, DU 145, prostate carcinoma) it was 2010 nM; in [8] (Homo sapiens, Hs-578T), 1410 nM; in [8], 1400 nM; in experiment [9], 2400 nM. In addition, the IC50 amounted to 1360 nM in experiment [10]; 2020 nM in experiment [11]; 486 nM in experiment [12]; 548 nM in [13]; 4290 nM in [14]; 3380 nM in [15]. The half-maximal inhibitory concentration (IC50) is 1580 nM in experiment [16] and 660 nM in [17].

Take `CN1CCOc2ccc(cc2)C(=O)NCc2cccc(c2)C(=O)N[C@@H](CC(C)(C)C)C(=O)Nc2ccc(cc2)CCN(C)C(=O)CC(C)(C)CC1=O` [Compound 5A]: the “enhancement in ABT737's potency / sensitivity of cells to ABT737” value in experiment [18] is on record as 5 fold.

In general, IC50 refers to the point on the concentration scale where inhibition reaches its midpoint. The low end stands for greater potency in that assay, the high end for weaker potency in that assay.
